Measurements reported in ChEMBL document CHEMBL6092207 (J Med Chem, 2024).

Key:
[1] = Binding affinity to SARS-CoV-2 Omicron main protease P132H mutant expressed in Escherichia coli assessed as dissociation constant using fluorogenic substrate incubated for 90 mins by fluorescence based analysis; set-up: species or system Severe acute respiratory syndrome coronavirus 2
[2] = Binding affinity to SARS-CoV-2 main protease E166 V mutant expressed in Escherichia coli assessed as dissociation constant using fluorogenic substrate incubated for 90 mins by fluorescence based analysis; set-up: species or system Severe acute respiratory syndrome coronavirus 2

With CN1C(=O)C[C@H]2CC3(CC3)CN2C(=O)c2cncc(c2)NCCCCCCNC(=O)[C@H]1Cc1ccc(Cl)cc1Cl the Ki [1] was less than 1 nM and the Ki [2] was 12 nM.

Compound CC(C)(C)[C@H](NC(=O)C(F)(F)F)C(=O)N1C[C@H]2[C@@H]([C@H]1C(=O)N[C@H](C#N)C[C@@H]1CCNC1=O)C2(C)C has a Ki [1] of 1 nM and a Ki [2] greater than 5000 nM.

With CN1C(=O)C[C@H]2CC3(CC3)CN2C(=O)c2cncc(c2)NCCC/C=C/CNC(=O)[C@H]1Cc1ccc(Cl)cc1Cl the Ki [1] was less than 1 nM and the Ki [2] was 11 nM.

With CNC[C@@H](Cc1ccc(Cl)cc1)N(C)C(=O)C[C@H]1CCCN1C(=O)c1cncc2ccccc12 the Ki [1] was 35 nM and the Ki [2] was 1200 nM.
